Results published in patent US9932325B2 (Denali Therapeutics Inc., priority 2015, dated 2018).

Target: LRRK2 G2019S enzyme (Homo sapiens (Human), UniProt Q5S007, G2019S)
Test: LRRK2 G2019S TR-FRET biochemical assay (LRRKtide substrate)
Conditions: 134 μM ATP
Description: Detection Reaction Conditions • 1× TR-FRET dilution buffer • 10 mM EDTA • 2 nM antibody • 23° C. reaction temperature • 10 μL total reaction volume
Compounds were prepared by initially diluting to 1 mM with DMSO. 35 μL of reference compound solution, 35 μL of test compound solution, and 35 μL HPE were successively added to the source plate (384-well assay plate, Labcyte). The plates were centrifuged at 2500 rpm for 1 minute and sealed in foil. […] The assay plate was centrifuged at 2500 rpm for 1 minute, and sealed with foil.
To perform the enzyme reaction, 5 μL of LRRKtide substrate and kinase mixture in assay buffer was added to all wells of the assay plate. The plate was centrifuged to concentrate the mixture at the bottom of the wells. The assay plate was incubated at 23° C. for 20 minutes. Following incubation, 5 μL of 2× ATP in assay buffer was added to each well, and plates were centrifuged to concentrate the mixture at the bottom of the wells. The plate was incubated at 23° C. for 60 minutes.
To perform the detection of the reaction, EDTA completely mixed in TR-FRET dilution buffer was added to antibody reagent. 10 μL of detection reagent was added to all wells of each well of the assay plate and the plate was centrifuged to concentrate the mixture at the bottom of the wells. The plate was then incubated at 23° C. for 60 minutes.

LRRK2 G2019S enzyme, sequence (Q5S007 whole entry G2019S): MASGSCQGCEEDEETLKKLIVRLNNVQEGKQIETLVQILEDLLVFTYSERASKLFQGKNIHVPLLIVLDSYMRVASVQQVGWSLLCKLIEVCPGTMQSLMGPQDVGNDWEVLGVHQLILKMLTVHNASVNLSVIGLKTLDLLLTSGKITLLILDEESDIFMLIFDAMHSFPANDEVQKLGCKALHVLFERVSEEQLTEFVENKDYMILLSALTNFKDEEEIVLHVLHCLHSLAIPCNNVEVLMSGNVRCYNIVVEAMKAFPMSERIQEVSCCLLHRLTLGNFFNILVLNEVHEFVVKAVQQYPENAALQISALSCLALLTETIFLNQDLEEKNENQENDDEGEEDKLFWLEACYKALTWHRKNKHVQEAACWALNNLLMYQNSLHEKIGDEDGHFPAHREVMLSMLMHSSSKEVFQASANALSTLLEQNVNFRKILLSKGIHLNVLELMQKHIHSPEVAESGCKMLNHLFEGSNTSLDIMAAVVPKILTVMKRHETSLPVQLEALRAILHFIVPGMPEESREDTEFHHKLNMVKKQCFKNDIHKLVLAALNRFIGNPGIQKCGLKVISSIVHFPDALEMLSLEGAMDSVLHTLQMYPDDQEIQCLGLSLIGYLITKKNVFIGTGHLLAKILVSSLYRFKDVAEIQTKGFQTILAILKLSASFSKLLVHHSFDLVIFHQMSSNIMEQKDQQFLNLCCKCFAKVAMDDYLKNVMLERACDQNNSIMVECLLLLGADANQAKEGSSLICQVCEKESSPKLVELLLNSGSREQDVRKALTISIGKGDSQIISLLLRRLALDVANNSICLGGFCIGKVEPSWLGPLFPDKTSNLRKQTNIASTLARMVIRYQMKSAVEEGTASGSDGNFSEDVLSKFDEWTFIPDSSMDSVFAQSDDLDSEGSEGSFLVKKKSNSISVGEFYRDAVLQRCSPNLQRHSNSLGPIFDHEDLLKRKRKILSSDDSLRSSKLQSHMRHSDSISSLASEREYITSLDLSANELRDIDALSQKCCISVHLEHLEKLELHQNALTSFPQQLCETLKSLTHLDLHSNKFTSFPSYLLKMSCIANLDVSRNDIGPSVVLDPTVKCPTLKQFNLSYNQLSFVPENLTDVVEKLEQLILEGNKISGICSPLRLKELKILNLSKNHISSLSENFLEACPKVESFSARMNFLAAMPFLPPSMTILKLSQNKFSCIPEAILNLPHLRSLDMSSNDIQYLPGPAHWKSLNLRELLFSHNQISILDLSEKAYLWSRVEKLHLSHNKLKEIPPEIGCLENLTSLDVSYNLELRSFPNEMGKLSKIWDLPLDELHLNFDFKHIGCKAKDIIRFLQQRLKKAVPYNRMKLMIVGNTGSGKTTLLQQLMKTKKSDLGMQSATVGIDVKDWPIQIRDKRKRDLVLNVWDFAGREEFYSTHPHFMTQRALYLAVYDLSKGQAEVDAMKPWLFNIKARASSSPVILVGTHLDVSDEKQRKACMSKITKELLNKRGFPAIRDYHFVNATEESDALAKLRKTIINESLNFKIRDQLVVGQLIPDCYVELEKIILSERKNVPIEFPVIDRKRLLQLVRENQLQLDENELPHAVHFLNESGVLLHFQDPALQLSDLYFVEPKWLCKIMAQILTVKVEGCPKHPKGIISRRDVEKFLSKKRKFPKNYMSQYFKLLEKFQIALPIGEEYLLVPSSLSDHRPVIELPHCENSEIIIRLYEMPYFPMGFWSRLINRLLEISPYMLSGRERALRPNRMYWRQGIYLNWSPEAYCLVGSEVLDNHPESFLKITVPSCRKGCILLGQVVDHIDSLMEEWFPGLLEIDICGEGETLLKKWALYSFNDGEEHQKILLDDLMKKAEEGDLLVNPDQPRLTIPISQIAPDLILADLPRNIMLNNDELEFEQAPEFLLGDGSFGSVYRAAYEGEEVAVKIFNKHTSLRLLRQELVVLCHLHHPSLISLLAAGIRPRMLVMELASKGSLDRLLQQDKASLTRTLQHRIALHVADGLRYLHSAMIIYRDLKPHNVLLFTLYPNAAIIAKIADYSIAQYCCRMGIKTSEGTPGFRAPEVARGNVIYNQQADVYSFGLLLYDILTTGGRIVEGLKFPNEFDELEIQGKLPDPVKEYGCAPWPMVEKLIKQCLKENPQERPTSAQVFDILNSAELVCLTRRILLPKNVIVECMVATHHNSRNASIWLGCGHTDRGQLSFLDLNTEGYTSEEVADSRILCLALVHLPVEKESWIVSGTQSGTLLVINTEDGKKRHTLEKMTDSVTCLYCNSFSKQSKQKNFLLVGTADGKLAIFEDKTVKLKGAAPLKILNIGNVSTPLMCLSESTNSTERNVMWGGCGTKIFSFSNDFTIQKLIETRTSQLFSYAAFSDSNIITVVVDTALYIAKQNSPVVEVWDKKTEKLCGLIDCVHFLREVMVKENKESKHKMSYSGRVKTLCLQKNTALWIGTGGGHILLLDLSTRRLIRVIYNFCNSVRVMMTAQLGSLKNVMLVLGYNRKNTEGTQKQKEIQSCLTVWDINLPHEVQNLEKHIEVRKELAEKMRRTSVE

Compound	IC50 [nM]
Cc1nn(C(C)(C)C#N)cc1Nc1ncc(Cl)c(NC2CC2)n1 [Compound 72]	< 30
CCNc1nc(Nc2cc([C@H]3C[C@@H]3C#N)nn2C2CC2)ncc1C(F)(F)F [Compound 152]	< 30
CCNc1nc(Nc2cc(C(C)(C)S(C)(=O)=O)nn2C2CC2)ncc1C(F)(F)F [Compound 139]	< 30
CCNc1nc(Nc2ccnn2[C@H]2C[C@H](F)C2)ncc1C(F)(F)F [Compound 190]	< 30
CNc1nc(Nc2cnn(C3C[C@@H]4[C@H](C3)C4(F)F)c2C)ncc1C(F)(F)F (stereo partly drawn) [Compound 11]	< 30
CCNc1nc(Nc2cnn([C@H]3C[C@@H](n4nccn4)C3)c2C2CC2)ncc1C(F)(F)F [Compound 101]	< 30
CNc1nc(Nc2cc(C(C)(C)n3nccn3)nn2C2CC2)ncc1C(F)(F)F [Compound 77]	< 30
Cc1nn(C(C)(C)C#N)cc1Nc1nc2c(c(C3CC3)n1)C1(CC1)CN2 [Compound 19]	< 30
CCNc1nc(Nc2cc(C(C)(C)n3nccn3)nn2C)ncc1C(F)(F)F [Compound 57]	< 30
CCNc1nc(Nc2cnn(C3CCC3)c2C#N)ncc1C(F)(F)F [Compound 32]	< 30
CNc1nc(Nc2cnn(C3C[C@@H]4[C@H](C3)C4(F)F)c2Cl)ncc1C(F)(F)F (stereo partly drawn) [Compound 9]	< 30
CNc1nc(Nc2cnn(C3CN(C4COC4)CCC3(F)F)c2Cl)ncc1C(F)(F)F (single isomer, unassigned) [Compound 29]	< 30
CNc1nc(Nc2cn(C3CC3)nc2[C@H]2C[C@@H](n3nccn3)C2)ncc1C(F)(F)F [Compound 199]	30 to 60
CNc1nc(Nc2cn(C3C[C@@H]3C#N)nc2C2CC2)ncc1C(F)(F)F (single isomer, unassigned) [Compound 208]	< 30
CCNc1nc(Nc2cnn(C3CNCCC3(F)F)c2C)ncc1C(F)(F)F (single isomer, unassigned) [Compound 200]	< 30
CCNc1nc(Nc2cnn(-c3cnccn3)c2C2CC2)ncc1C(F)(F)F [Compound 105, N2-(5-cyclopropyl-1-pyrazin-2-yl-pyrazol-4-yl)-N4-ethyl-5-(trifluoromethyl)pyrimidine-2,4-diamine]	< 30
COc1nc(Nc2cn(C3(C)CCOC3=O)nc2C)ncc1Br (single isomer, unassigned) [Compound 102]	< 30
CCNc1nc(Nc2cn(C(C)(C)c3nncs3)nc2C)ncc1C(F)(F)F [Compound 85]	< 30
[2H]C([2H])([2H])n1nc(C2(C)CCOC2=O)cc1Nc1ncc(C(F)(F)F)c(NCC)n1 (stereo not drawn) [Compound 174]	< 30
CCNc1nc(Nc2cc(C(C)(C)S(C)(=O)=O)nn2C2CC2)ncc1Br [Compound 140]	< 30

Compound	IC50 [nM]
COc1nc(Nc2cn(Cc3cc[nH]n3)nc2C2CC2)ncc1Br [Compound 95]	< 30
CCNc1nc(Nc2cc(C(C)(C)n3nccn3)nn2CC)ncc1C(F)(F)F [Compound 129]	< 30
[2H]C([2H])([2H])Nc1nc(Nc2cn(C(C)(C)C#N)nc2C([2H])([2H])[2H])ncc1C(F)(F)F [Compound 63]	< 30
[2H]C([2H])([2H])N1CCC(n2cc(Nc3ncc(C(F)(F)F)c(NCC)n3)c(C)n2)C1=O (stereo not drawn) [Compound 25]	< 30
CCNc1nc(Nc2cc(C(=O)N(C)C)nn2C2CC2)ncc1C(F)(F)F [Compound 130]	< 30
CNc1nc(Nc2cnn(C3CCCC3(C)O)c2C)ncc1C(F)(F)F (single isomer, unassigned) [Compound 30]	30 to 60
CCNc1nc(Nc2ccnn2[C@H]2C[C@@H](O)C2)ncc1C(F)(F)F [Compound 179]	< 30
CCNc1nc(Nc2cc(C(C)n3nccn3)nn2C2CC2)ncc1Br (stereo not drawn) [Compound 146]	< 30
CCNc1nc(Nc2cc(C3(C)CCn4ccnc43)nn2C2CC2)ncc1C(F)(F)F (stereo not drawn) [Compound 166]	> 60
[2H]C([2H])([2H])c1nn(C(C#N)(C([2H])([2H])[2H])C([2H])([2H])[2H])cc1Nc1ncc(C(F)(F)F)c(NC)n1 [Compound 45]	< 30
[2H]C([2H])([2H])c1nn(C(C)(C)C#N)cc1Nc1ncc(C(F)(F)F)c(NC)n1 [Compound 62]	< 30
CCNc1nc(Nc2ccnn2[C@H]2C[C@@H](n3nccn3)C2)ncc1C(F)(F)F [Compound 188]	30 to 60
CNc1nc(Nc2cc(C3(C)CCOC3=O)nn2C2CC2)ncc1C(F)(F)F (stereo not drawn) [Compound 156]	< 30
[2H]C([2H])([2H])c1nn(C(C#N)(C([2H])([2H])[2H])C([2H])([2H])[2H])cc1Nc1ncc(C(F)(F)F)c(NCC(F)F)n1 [Compound 46]	< 30
[2H]C([2H])([2H])N1CCC(n2cc(Nc3ncc(C(F)(F)F)c(NCC)n3)c(C)n2)(C([2H])([2H])[2H])C1=O (single isomer, unassigned) [Compound 23]	< 30
Cc1nn(C2(C)CCOC2=O)cc1Nc1ncc(C(F)(F)F)c(C2CC2)n1 (single isomer, unassigned) [Compound 120]	< 30
CCNc1nc(Nc2cn(C3(C)CCOC3=O)nc2C2CC2)ncc1C(F)(F)F (stereo not drawn) [Compound 108]	< 30
CCNc1nc(Nc2cnn3c2CC(n2nccn2)C3)ncc1C(F)(F)F (single isomer, unassigned) [Compound 54A]	< 30
CCNc1nc(Nc2cn(C3C[C@H]3C#N)nc2C2CC2)ncc1Br (single isomer, unassigned) [Compound 215]	< 30
CCNc1nc(Nc2cc(C(C)=O)nn2C2CC2)ncc1C(F)(F)F [Compound 135]	> 60

Compound	IC50 [nM]
CCNc1nc(Nc2cnn(C3CN(CC)CCC3(F)F)c2Cl)ncc1C(F)(F)F (single isomer, unassigned) [Compound 204]	< 30
CCNc1nc(Nc2cc([C@H]3C[C@H]3C(=O)OCC)nn2C2CC2)ncc1C(F)(F)F [Compound 169]	< 30
CNc1nc(Nc2cnn(C3CC4(COC4)C3)c2Cl)ncc1C(F)(F)F [Compound 13]	< 30
N#C[C@@H]1CC1n1cc(Nc2ncc(C(F)(F)F)c(NCC(F)F)n2)c(C2CC2)n1 (single isomer, unassigned) [Compound 211]	< 30
CNc1nc(Nc2cnn(C3CCCC3(C)O)c2C)ncc1C(F)(F)F (single isomer, unassigned) [Compound 31]	30 to 60
CCNc1nc(Nc2cc(-c3ncoc3C)nn2C2CC2)ncc1C(F)(F)F [Compound 142]	< 30
CCNc1nc(Nc2cnn(C3CCCN(CC(F)F)C3)c2C)ncc1C(F)(F)F (single isomer, unassigned) [Compound 92]	< 30
CCNc1nc(Nc2cc(N3CCCS3(=O)=O)nn2C2CC2)ncc1Br [Compound 159]	< 30
CCN1CCC(F)(F)C(n2ncc(Nc3ncc(C(F)(F)F)c(NC)n3)c2Cl)C1 (single isomer, unassigned) [Compound 202]	< 30
CCNc1nc(Nc2cn(C3(C)CCCC3=O)nc2C)ncc1C(F)(F)F (stereo not drawn) [Compound 194, 2-[4-[[4-(ethylamino)-5-(trifluoromethyl)pyrimidin-2-yl]amino]-3-methyl-pyrazol-1-yl]-2-methyl-cyclopentanone]	< 30
[2H]C([2H])([2H])c1nn(C(C#N)(C([2H])([2H])[2H])C([2H])([2H])[2H])cc1Nc1ncc(C(F)(F)F)c(NCC)n1 [Compound 44]	< 30
CCNc1nc(Nc2cn(C3C[C@H]3C#N)nc2Cl)ncc1C(F)(F)F (single isomer, unassigned) [Compound 207]	< 30
CCNc1nc(Nc2cn(C(C)(C)C#N)nc2C)ncc1C(F)(F)F [Compound 87]	< 30
CCNc1nc(Nc2cn(C3(C)CCOC3=O)nc2C)ncc1C(F)(F)F (single isomer, unassigned) [Compound 125]	< 30
CCNc1nc(Nc2cc(C3(C)CCOC3=O)nn2C2CC2)ncc1Br (stereo not drawn) [Compound 151]	< 30
CCNc1nc(Nc2cn(C(C)(C)C#N)nc2C)ncc1Br [Compound 43]	< 30
CNc1nc(Nc2cn(C(C)(C)C#N)nc2C)ncc1Br [Compound 42]	< 30
Cc1nn(C(C)(C)C#N)cc1Nc1ncc(C(F)(F)F)c(NC(CF)CF)n1 [Compound 76]	< 30
CCNc1nc(Nc2cnn([C@H]3C[C@H](n4nccn4)C3)c2C2CC2)ncc1C(F)(F)F [Compound 97]	< 30
CNc1nc(Nc2c[nH]nc2C)ncc1C(F)(F)F [Compound 109]	< 30
